Laboratory results from ChEMBL document CHEMBL1201862, “PubChem BioAssay data set” (2004).
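Briefly, cells in 96-well plates were exposed to five compound concentrations for 48 h, and endpoints were estimated by linear interpolation. GI50 = concentration required for 50% inhibition of growth.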 The source made the active and inactive calls. Rule as the data show it: active = GI50 up to about 1.1 µM and inactive = higher.

Legend:
Assay in all cases: NCI-60 cell line screen, 48 h
[1] = tested on: HOP-92
[2] = tested on: HL-60
[3] = tested on: M14
[4] = tested on: OVCAR-3
[5] = tested on: KM12
[6] = tested on: K562
[7] = tested on: MDA-N
[8] = tested on: NCI-H460
[9] = tested on: SNB-75
[10] = tested on: Hs-578T
[11] = tested on: ACHN
[12] = tested on: CAKI-1
[13] = tested on: HCT-15
[14] = tested on: SF-295
[15] = tested on: MCF7
[16] = tested on: SN12C
[17] = tested on: NCI/ADR-RES
[18] = tested on: T47D
[19] = tested on: HT-29
[20] = tested on: NCI-H23
[21] = tested on: SK-MEL-28
[22] = tested on: IGROV-1
[23] = tested on: PC-3
[24] = tested on: TK-10
[25] = tested on: DU-145
[26] = tested on: OVCAR-5
[27] = tested on: HOP-62
[28] = tested on: UACC-62
[29] = tested on: SNB-19
[30] = tested on: A549
[31] = tested on: MOLT-4
[32] = tested on: UO-31
[33] = tested on: SF-539
[34] = tested on: 786-0
[35] = tested on: NCI-H226
[36] = tested on: OVCAR-8
[37] = tested on: Malme-3M
[38] = tested on: SK-MEL-5
[39] = tested on: RXF 393
[40] = tested on: SW-620
[41] = tested on: MDA-MB-231
[42] = tested on: A498
[43] = tested on: HCC 2998
[44] = tested on: SF-268
[45] = tested on: UACC-257
[46] = tested on: SK-OV-3
[47] = tested on: COLO 205
[48] = tested on: LOX IMVI
[49] = tested on: CCRF-CEM
[50] = tested on: BT-549
[51] = tested on: HCT-116
[52] = tested on: U-251
[53] = tested on: EKVX
[54] = tested on: MDA-MB-435
[55] = tested on: NCI-H522
[56] = tested on: SK-MEL-2
[57] = tested on: RPMI-8226
[58] = tested on: OVCAR-4

SMILES: CC(C)OP(=O)(OC(C)C)C(C(C)C)N(C)/C(F)=N/C(F)(F)F (configuration not stated)
- GI50 [1]: > 100 µM (inactive)
- GI50 [2]: 31 µM (inactive)
- GI50 [3]: > 100 µM (inactive)
- GI50 [4]: > 100 µM (inactive)
- GI50 [5]: > 100 µM (inactive)
- GI50 [6]: 60.5 µM (inactive)
- GI50 [7]: > 100 µM (inactive)
- GI50 [8]: > 100 µM (inactive)
- GI50 [9]: > 100 µM (inactive)
- GI50 [10]: > 100 µM (inactive)
- GI50 [11]: > 100 µM (inactive)
- GI50 [12]: > 100 µM (inactive)
- GI50 [13]: > 100 µM
- GI50 [14]: > 100 µM (inactive)
- GI50 [15]: > 100 µM (inactive)
- GI50 [16]: > 100 µM (inactive)
- GI50 [17]: > 100 µM (inactive)
- GI50 [18]: > 100 µM (inactive)
- GI50 [19]: > 100 µM (inactive)
- GI50 [20]: > 100 µM (inactive)
- GI50 [21]: > 100 µM (inactive)
- GI50 [22]: > 100 µM (inactive)
- GI50 [23]: > 100 µM (inactive)
- GI50 [24]: > 100 µM (inactive)
- GI50 [25]: > 100 µM (inactive)
- GI50 [26]: > 100 µM (inactive)
- GI50 [27]: > 100 µM (inactive)
- GI50 [28]: > 100 µM (inactive)
- GI50 [29]: > 100 µM (inactive)
- GI50 [30]: > 100 µM (inactive)
- GI50 [31]: 75.7 µM (inactive)
- GI50 [32]: > 100 µM (inactive)
- GI50 [33]: > 100 µM (inactive)
- GI50 [34]: > 100 µM (inactive)
- GI50 [35]: > 100 µM (inactive)
- GI50 [36]: > 100 µM (inactive)
- GI50 [37]: > 100 µM (inactive)
- GI50 [38]: > 100 µM (inactive)
- GI50 [39]: > 100 µM (inactive)
- GI50 [40]: > 100 µM (inactive)
- GI50 [41]: > 100 µM (inactive)
- GI50 [42]: > 100 µM (inactive)
- GI50 [43]: > 100 µM (inactive)
- GI50 [44]: > 100 µM (inactive)
- GI50 [45]: > 100 µM (inactive)
- GI50 [46]: > 100 µM (inactive)
- GI50 [47]: > 100 µM (inactive)
- GI50 [48]: > 100 µM (inactive)
- GI50 [49]: > 100 µM (inactive)
- GI50 [50]: > 100 µM (inactive)
- GI50 [51]: > 100 µM (inactive)
- GI50 [52]: > 100 µM (inactive)
- GI50 [53]: > 100 µM (inactive)
- GI50 [54]: > 100 µM (inactive)
- GI50 [55]: > 100 µM (inactive)

SMILES: CCC(c1c[nH]c2ccc(Br)cc12)c1c[nH]c2ccc(Br)cc12
- GI50 [1]: 2.05 µM (inactive)
- GI50 [2]: 4.39 µM (inactive)
- GI50 [3]: 3.22 µM (inactive)
- GI50 [4]: 3.96 µM (inactive)
- GI50 [5]: 1.97 µM (inactive)
- GI50 [6]: 2.54 µM (inactive)
- GI50 [7]: 4.33 µM (inactive)
- GI50 [56]: 10.6 µM (inactive)
- GI50 [8]: 2.63 µM (inactive)
- GI50 [10]: 5.82 µM (inactive)
- GI50 [11]: 3.65 µM (inactive)
- GI50 [12]: 2.45 µM (inactive)
- GI50 [57]: 2.5 µM (inactive)
- GI50 [13]: 4.01 µM
- GI50 [14]: 5.92 µM (inactive)
- GI50 [15]: 3.98 µM (inactive)
- GI50 [16]: 3.7 µM (inactive)
- GI50 [17]: 3.08 µM (inactive)
- GI50 [18]: 2.3 µM (inactive)
- GI50 [19]: 3.08 µM (inactive)
- GI50 [20]: 2.96 µM (inactive)
- GI50 [21]: 11.5 µM (inactive)
- GI50 [22]: 4.41 µM (inactive)
- GI50 [23]: 4.81 µM (inactive)
- GI50 [24]: 10.9 µM (inactive)
- GI50 [25]: 2.88 µM (inactive)
- GI50 [26]: 3.78 µM (inactive)
- GI50 [27]: 10.5 µM (inactive)
- GI50 [58]: 2.75 µM (inactive)
- GI50 [28]: 10.2 µM (inactive)
- GI50 [29]: 8.57 µM (inactive)
- GI50 [30]: 3.72 µM (inactive)
- GI50 [31]: 1.94 µM (inactive)
- GI50 [32]: 6.97 µM (inactive)
- GI50 [33]: 12.5 µM (inactive)
- GI50 [34]: 3.56 µM (inactive)
- GI50 [35]: 11.8 µM (inactive)
- GI50 [36]: 4.53 µM (inactive)
- GI50 [37]: 10.6 µM (inactive)
- GI50 [38]: 8.11 µM (inactive)
- GI50 [39]: 2.32 µM (inactive)
- GI50 [40]: 3.94 µM (inactive)
- GI50 [41]: 11.1 µM (inactive)
- GI50 [42]: 3.79 µM (inactive)
- GI50 [43]: 2.19 µM (inactive)
- GI50 [44]: 5.97 µM (inactive)
- GI50 [45]: 11.6 µM (inactive)
- GI50 [46]: 11.9 µM (inactive)
- GI50 [47]: 2.42 µM (inactive)
- GI50 [48]: 2.44 µM (inactive)
- GI50 [49]: 2.95 µM (inactive)
- GI50 [50]: 10.3 µM (inactive)
- GI50 [51]: 3.94 µM (inactive)
- GI50 [52]: 3.72 µM (inactive)
- GI50 [53]: 5.14 µM (inactive)
- GI50 [54]: 3.13 µM (inactive)
- GI50 [55]: 4.44 µM (inactive)
